# Counter-ions that a name gives are not always drawn.
# What was measured:
# [1] = test system: human melanoma cells (MeWo, MeWo-LM2, HT-144, SK-Mel-2, SK-Mel-334.2); assay: Trans-well matrigel cell invasion assay, melanoma cells; type: cell-based
# Experimental: Cancer cells were serum-starved in 0.2% FBS DMEM-based media for 12 hours. Trans-well invasion chambers (354480, BD Biosciences, Bedford, Mass.) were pre-equilibrated prior to beginning the assay by adding 0.5 mL of starvation media to the top and bottom chambers. After 30 minutes, the media in the top chamber was removed, and 0.5 mL of media containing 1×10^5 cancer cells was added into each matrigel-coated trans-well insert and incubated at 37° C. for 24 hours. For neutralization antibody and/or recombinant protein experiments, antibody/recombinant protein was added to each well at the start of the assay at the following concentrations as indicated in the figures: 5-40 μg/mL anti-ApoE 1D7 (Heart Institute, University of Ottawa), 5-40 μg/mL anti-IgG (AB-108-C, R&D Systems, Minneapolis, Minn.), 100 μM recombinant human ApoE3 (4696, BioVision, Mountain View, Calif.), and 100 μM BSA (A2153, Sigma-Aldrich). Upon completion of the assay, matrigel-coated inserts were washed with PBS, the cells at the top side of each insert were scraped off, and the inserts were fixed in 4% paraformaldehyde for 15 minutes. The inserts were then cut out and mounted onto slides using VectaShield mounting medium containing DAPI (H-1000, Vector Laboratories, Burlingame, Calif.). The basal side of each insert was imaged using an inverted fluorescence microscope (Zeiss Axiovert 40 CFL) at 5× magnification, taking three representative images for each insert. The number of invaded cells was quantified using ImageJ (NIH).
# The cell invasion assay was performed as previously described in detail (Pencheva et al., 2012) using a trans-well matrigel invasion chamber system (354480, BD Biosciences). In brief, various melanoma cells were cultured in the presence of DMSO, GW3965, T0901317, or Bexarotene at 1 μM for 56 hours, after which melanoma cells were switched to starvation media (0.2% FBS) for 16 hours in the presence of each drug. Following starvation, cells were seeded into matrigel-coated trans-well inserts, and the invasion assay was allowed to proceed for 24 hours at 37° C. For ApoE antibody neutralization experiments, 40 μg/mL 1D7 anti-ApoE blocking antibody (Heart Institute, University of Ottawa, Ottawa, Canada) or 40p, g/mL anti-IgG control antibody (AB-108-C, R&D Systems, Minneapolis, Minn.) was added to each trans-well insert at the start of the assay.
# The cells were then serum starved for 16 hours in 0.2% FBS media in the presence of each corresponding drug or DMSO. […] Meanwhile, cancer cells were trypsinized and viable cells were counted using trypan blue. […] The basal side of each insert was imaged using an inverted fluorescence microscope (Zeiss Axiovert 40 CFL) at 5× magnification, and the number of DAPI-positive cells was quantified using ImageJ.
# [2] = test system: HUVEC recruited by human melanoma cells; assay: Trans-well endothelial recruitment assay; type: cell-based; conditions: for ability of melanoma cells to recruit endothelial cells: MeWo, HT-144, SK-Mel-2, SK-Mel-334.2, 1 μM for 72 hours
# Experimental: 5×10^4 cancer cells were seeded into 24-well plates approximately 24 hours prior to the start of the assay. HUVEC's were grown to 80% confluency and serum starved in EGM-2 media supplemented with 0.2% FBS for 16 hours. HUVEC's were then pulsed with Cell Tracker Red CMTPX dye (C34552, Invitrogen) for 45 minutes. Meanwhile, cancer cells were washed with PBS, 0.5 mL of 0.2% FBS EGM-2 media was added to each well, and a 3.0 μm HTS Fluoroblock insert (351151, BD Falcon, San Jose, Calif.) was placed into each well. 1×10^5 HUVEC's, resuspended in 0.5 mL of starvation media, were seeded into each trans-well insert, and the recruitment assay was allowed to proceed for 16-18 hours at 37° C. For neutralization antibody and/or recombinant protein experiments, antibody/protein was then added to each well at the appropriate concentration as indicated in the figures: 40 μg/mL anti-ApoE 1D7, 40 μg/mL anti-IgG, 100 μM rhApoE3, and 100 μM BSA. Upon completion of the assay, the inserts were processed and analyzed as described for the matrigel invasion assay above (See Matrigel Invasion Assay).
# The endothelial recruitment assay was carried out as previously described (Pencheva et al., 2012; Png et al., 2012). Melanoma cells were treated with DMSO, GW3965, T0901317, or Bexarotene at 1 μM for 56 hours, after which 5×10^4 cells were seeded in a 24-well plate in the presence of each drug and allowed to attach for 16 hours prior to starting the assay. HUVEC cells were serum-starved overnight in EGM-2 media containing 0.2% FBS. The following day, 1×10^5 HUVEC cells were seeded into a 3.0 μm HTS Fluoroblock trans-well migration insert (351151, BD Falcon, San Jose, Calif.) fitted into each well containing cancer cells at the bottom. The HUVEC cells were allowed to migrate towards the cancer cells for 20 hours at 37° C., after which the inserts were processed as previously described (Pencheva et al., 2012). For ApoE antibody neutralization experiments, 40 μg/mL 1D7 anti-ApoE blocking antibody (Heart Institute, University of Ottawa, Ottawa, Canada) or 40 μg/mL anti-IgG control antibody (AB-108-C, R&D Systems, Minneapolis, Minn.) was added to each trans-well insert at the start of the assay.
# Subsequently, 5×10^4 cancer cells were seeded into 24-well plates in the presence of each drug or DMSO and allowed to attach for 16 hours prior to starting the assay. Human umbilical vein endothelial cells (HUVEC cells) were serum-starved in 0.2% FBS-containing media overnight. The following day, 1×10^5 HUVEC cells were seeded into a 3.0 μm HTS Fluoroblock insert (351151, BD Falcon) fitted into each well containing the cancer cells at the bottom. The HUVEC cells were allowed to migrate towards the cancer cells for 20 hours, after which the inserts were washed in PBS, fixed in 4% PFA, labeled with DAPI, and mounted on slides. The basal side of each insert was imaged using an inverted fluorescence microscope (Zeiss Axiovert 40 CFL) at 5× magnification, and the number of DAPI-positive cells was quantified using ImageJ.
# [3] = recombinant ApoE3 100 μM in cell media
# [4] = parental MeWo cells pre-treated 48 hours
compound,measurement,setting,value
CC(CCOc1cccc(CC(=O)O)c1)N(Cc1cccc(C(F)(F)F)c1Cl)CC(c1ccccc1)c1ccccc1 (centres unmarked) [SB742881 25],"inhibition of cancer progression phenotypes (cell invasion, endothelial recruitment)","[1]; MeWo cells, 1 μM for 72 hours, compared with lower potency LXR agonists",more effective
"recombinant human ApoE3: recombinant human ApoE3 (4696, BioVision)",invasion by metastatic LM2 cells,[1]; [3],significantly suppressed
same,ability of endothelial cells to migrate towards highly metastatic cancer cells,"[2]; endothelial cells pre-treated 24 hours, 100 μM",significantly reduced
same,endothelial recruitment by metastatic LM2 cells,[2]; [3],significantly suppressed
"O=C(O)Cc1cccc(OCCCN(Cc2cccc(C(F)(F)F)c2Cl)CC(c2ccccc2)c2ccccc2)c1 [GW3965 2, 3-[3-[N-(2-Chloro-3-trifluoromethylbenzyl)-(2,2-diphenylethyl)amino]propyloxy]phenylacetic acid hydrochloride]",tumor cell invasion,[1]; [4],decreased
same,ability of melanoma cells to recruit endothelial cells,[2],consistently suppressed
same,endothelial recruitment,[2]; [4],decreased
O=S(=O)(c1ccccc1)N(CC(F)(F)F)c1ccc(C(O)(C(F)(F)F)C(F)(F)F)cc1 [T0901317 1],ability of melanoma cells to recruit endothelial cells,[2],consistently suppressed
